This is an account of results in patent US7811797B2, “α-isomaltosylglucosaccharide-forming enzyme, process and uses of the same” (Kabushiki Kaisha Hayashibara Seibutsu Kagaku Kenkyujo, priority 2000, dated 2010).

Data set [1] has as its system α-isomaltosylglucosaccharide-forming enzyme. Briefly: Transfer-acceptor specificity, Enzyme of Strain A19. Format: biochemical, Arthrobacter globiformis A19. The conditions noted are these: acceptor 1.6%, PINE-DEX #100 donor 4%, one unit/g donor, 30° C., pH 8.4, 24 hours. The method in brief: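 Each candidate acceptor at 1.6% was combined with 4% partial starch hydrolysate donor and 1 unit/g donor (d.s.b.) of purified enzyme. Incubation ran 24 h at 30 °C, pH 6.0 for the C9, C11 and N75 enzymes and pH 8.4 for A19. Transfer products were detected by GLC for mono- and disaccharide acceptors and HPLC for trisaccharide acceptors.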

Data set [2] can be described thus: Digestion test in vitro, synthetic gastric juice.
Another data set relates to mice. Briefly: Acute toxicity test, oral administration. Format: in vivo. From the text: Based on this, the LD50 of cyclotetrasaccharide was at least 50 g/kg mouse body weight, though the data were not so accurate.
In data set [3] the test system is internal content of rat cecum. Briefly: Fermentation test by internal content of rat cecum. Format: in vitro ADME. The method, then:
The internal content of rat cecum was collected by anesthetizing a Wister male rat with ether, allowing the rat to die, collecting the internal content under anaerobic conditions, and suspending the resultant with 4-fold volumes of a 0.1 M aqueous solution of sodium bicarbonate. Cyclotetrasaccharide was added in an amount of about 7% by weight to the internal content of rat cecum, and the contents of cyclotetrasaccharide still remained just after and 12 hours after the addition of the internal content was quantified on gas chromatography. As a result, the contents of cyclotetrasaccharide of the former and latter were respectively 68.0 mg and 63.0 mg per one gram of the internal content of rat cecum.

The target of another data set is T1, Salivary amylase (Homo sapiens, UniProt P0DUB6).
T1 sequence (P0DUB6 16-511): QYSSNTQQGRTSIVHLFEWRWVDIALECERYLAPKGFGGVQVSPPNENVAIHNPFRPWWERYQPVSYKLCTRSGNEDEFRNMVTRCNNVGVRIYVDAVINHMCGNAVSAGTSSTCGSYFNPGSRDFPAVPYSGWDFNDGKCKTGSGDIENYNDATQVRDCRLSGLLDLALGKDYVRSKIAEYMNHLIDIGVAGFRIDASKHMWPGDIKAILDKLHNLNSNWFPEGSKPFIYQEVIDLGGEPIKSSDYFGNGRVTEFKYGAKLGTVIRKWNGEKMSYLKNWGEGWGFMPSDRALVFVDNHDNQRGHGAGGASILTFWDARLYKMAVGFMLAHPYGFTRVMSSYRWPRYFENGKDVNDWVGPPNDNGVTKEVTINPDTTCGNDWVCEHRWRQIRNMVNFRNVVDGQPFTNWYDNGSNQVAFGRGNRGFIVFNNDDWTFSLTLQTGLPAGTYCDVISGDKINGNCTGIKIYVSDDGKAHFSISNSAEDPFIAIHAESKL

The subject of data set [4] is Small intestinal mucosal enzyme.
For data set [5], the system named is Bifidobacterium adolescentis JCM 1275. Briefly: Assimilation test, Bifidobacterium adolescentis. Format: cell-based. The conditions noted are these: PYF medium with 0.5% saccharide, 37° C., four days, anaerobic.

Turning to `OC[C@@H](O)[C@@H](O[C@H]1O[C@H](CO)[C@@H](O)[C@H](O)[C@H]1O)[C@H](O)[C@@H](O)CO` [Maltitol, reference compound], the “Product of transferring reaction, Enzyme of Stain A19” value in data set [1] is “++ (a saccharide-transferred product was detected in an amount over ten percent through transfer reaction to acceptor)”. Besides, the “Decomposition percentage (%) by digestive enzyme” value in data set [2] is 0.0%.

In the case of `OCC1OC2OCC3O[C@H](O[C@H]4C(O)C(CO)OC(OCC5O[C@H](O[C@@H](C1O)C2O)C(O)C(O)[C@@H]5O)C4O)C(O)C(O)[C@@H]3O` (stereo partly drawn) [Cyclotetrasaccharide, cyclo{→6)-α-D-glucopyranosyl-(1→3)-α-D-glucopyranosyl-(1→6)-α-D-glucopyranosyl-(1→3)-α-D-glucopyransoyl-(1→}], the death of mice entry in the data set on mice (highest possible dose) is reported as “did not induce death of mice”. For the same compound, the LD50 entry with mice (mice, data not so accurate) is listed as “at least 50 g/kg mouse body weight”. Further, the “content of cyclotetrasaccharide remained” value was 63.0 mg per one gram of the internal content of rat cecum in data set [3] (12 hours after the addition) and 68.0 mg per one gram of the internal content of rat cecum in data set [3] (just after the addition, about 7% by weight added). The “Decomposition percentage (%) by digestive enzyme” value on Salivary amylase is given as 0.0%; in data set [4], 0.74%. The “digestibility relative to that of maltitol” value in data set [4] is reported as “⅕”. For the same compound, the Assimilability result in data set [5] is reported as “− (judged negative (−) when the post culture had a pH of 6.0 or higher)”.
